Assay results taken from patent US20250027041A1, “COMPOSITION FOR INDUCING TRANSDIFFERENTIATION AND STEM CELLS TREATED THEREWITH” (YJ CERAPEUTICS INC., priority 2021, published 2025).

Molecular target: T1, CtBP1-CtBP2 (Homo sapiens, UniProt P56545+Q13363)
T1 construct: expressed in transfected cells; host or cells: human UCB-MSC
Assay: Immunoprecipitation, CtBP1-CtBP2 heteromerization in UCB-MSCs
Assay type: cell-based
Conditions: YJ102 20 μM; FLAG-CtBP2 + HA-CtBP1
Procedure: To determine the effect of YJ102 on the regulation of oligomerization of C-terminal Binding Proteins (CtBPs) in human UCB-MSCs, immunoprecipitation analysis was performed. Specifically, UCB-MSCs were dispensed at 4×10^5 cells/ml in a 60 mm culture dish, and the next day, FLAG-CtBP1, HA-CtBP1, FLAG-CtBP2, and HA-CtBP1 were transfected into cells using 4 μl jetPRIME. Thereafter, the cells were treated with YJ102 (stock 30 mM in DMSO) and MTOB (stock 300 mM in DMSO) at 20 μM and 300 μM, respectively (Table 1). After 48 hours of transfection, proteins were extracted in the same manner as in Example 1-1. Protein G agarose slurry was washed with PBS and blocked with 1 ml of 1% BSA, washed with PBS, and added with 1 μg of anti-HA antibody diluted with 1.5 ml of PBS and incubated at 4° C. for 2 hours. Thereafter, the cells were centrifuged at 3,000×g for 2 minutes to remove the supernatant, washed with an IP150 buffer two times, added with 1 μg of the protein extracted above, and incubated at 4° C. overnight. After incubation, the cells were centrifuged at 3,000×g for 2 minutes to remove the supernatant, washed with PBS three times, added with 50 μl of 1 mg/ml HA peptide diluted with PBS, and incubated at room temperature for 10 minutes. […]

- CtBP1-CtBP2 heteromerization: had no effect
Compound: CCc1ccc(N(C(=O)COC)c2nc3cc(Cl)ccc3o2)cc1 [YJ102]
